Structures are written as SMILES.

One assay concerns MV4-11 cells. The assay is described as follows: CellTiter-Blue cell viability, MV-4-11. Format: cell-based. Conditions: Homo sapiens, 72 hrs exposure. How it is done: (§1) Anti-cancer efficacy of exemplary compounds of this application was assessed in vitro in different cancer cell lines. Cell viability was examined following treatment at various concentration of inhibitor (0.097656-50 μM) using a cell Titer-Blue cell viability assay. 1×10^4 cells (NHF, MV4-11, K562 and MOLM-13 cells)/well were plated in 96-well assay plates in culture medium. All cells were grown in DMEM, IMDM and RPMI-1640 supplemented with 10% FBS. After 24 hrs, test compounds and vehicle controls were added to appropriate wells so the final volume was 100 μl in each well. The cells were cultured for the desired test exposure period (72 hrs) at 37° C. and 5% CO2. The assay plates were removed from 37° C. incubator and 20 μl/well of CellTiter-Blue® Reagent was added. The plates were incubated using standard cell culture conditions for 1-4 hours and the plates were shaken for 10 seconds and record fluorescence at 560/590 nm.
For orientation: The colour change of resazurin is a common sign of viable cells or microbes.

Another assay deals with MOLM-13 cells. The assay is described as follows: CellTiter-Blue cell viability, MOLM-13. The assay is classed as cell-based. Conditions: Homo sapiens, 72 hrs exposure. How it is done:
as §1

In another assay the test system is K562 cells. As to the kind of experiment: CellTiter-Blue cell viability, K562. Format: cell-based. Conditions: Homo sapiens, 72 hrs exposure. How it is done: as §1
For a further assay, the system named is tubulin. The assay is described as follows: Tubulin polymerization assay. Conditions: for % Inhibition: Vmax normalized to tubulin only control; for % D.O.P.: degree of polymerization relative to tubulin control. The assay is classed as biochemical. How it is done: A96-well half-area clear flat-bottom microplate (Corning® #3697) was pre-heated in a plate reader (Cytation 3, BioTek) at 37° C. for 15 minutes prior to the start of each assay. Tubulin polymerization buffer (80 mM PIPES pH 6.9, 2 mM MgCl2, 0.5 mM EGTA, 15% glycerol, 1 mM GTP) was prepared from stock solutions and placed on ice. Inhibitors were prepared to M concentrations in buffer (80 mM PIPES pH 6.9, 2 mM MgCl2, 0.5 mM EGTA, 5% DMSO) from DMSO stock solutions. After the assay plate was pre-warmed, 10 μL of inhibitor or buffer control was added to selected wells. Every assay contained a tubulin only negative control for normalization of data, and a batabulin positive control. The assay plate was incubated at 37° C. for 3 minutes. During this time, a frozen aliquot of tubulin (10 mg/mL) in buffer (80 mM PIPES pH 6.9, 2 mM MgCl2, 0.5 mM EGTA) was defrosted by placing in a room temperature water bath. Once thawed, 200 μL of tubulin was mixed with 420 μL ice cold tubulin polymerization buffer (3 mg/mL tubulin in 80 mM PIPES, pH 6.9, 2 mM MgCl2, 0.5 mM EGTA, 1 mM GTP, 10.2% glycerol). To a 96-well plate on ice, aliquots of 100 μL tubulin was added to each well. From this plate, 90 μL of tubulin was immediately pipetted into all sample wells of the warmed assay plate using a multi-channel pipette. The assay plate was immediately put in the reader at 37° C. and shook for 5 s with orbital shaking at medium speed. The reader recorded the absorbance at 340 nm every 15 s for 30 min.
The resulting absorbance curves were normalized by subtracting each data point by the absorbance at time 0.
The largest change in absorbance over the assay time course was also recorded and related to the tubulin control as the % degree of polymerization (% D.O.P.).

As for `CN(C)S(=O)(=O)c1c(F)c(F)c(F)c(F)c1F` [Compound I-1, 2,3,4,5,6-pentafluoro-N,N-dimethylbenzenesulfonamide], the IC50 was 1 to 10 µM with MV4-11 cells, 1 to 10 µM with MOLM-13 cells and more than 10 µM with K562 cells. Also, the “% Inhibition” value in the assay on tubulin is “A (<10%)”. Also, in the assay on tubulin, the “% D.O.P.” value is given as “A (>85%)”.

As to `CN(C)S(=O)(=O)c1c(F)c(F)c(F)c(F)c1Cc1ccccc1` [Compound I-24, 2-benzyl-3,4,5,6-tetrafluoro-N,N-dimethylbenzenesulfonamide], the results for the IC50 with MV4-11 cells, in the assay on MOLM-13 cells and in the assay on K562 cells were 1 to 10 µM, 1 to 10 µM and more than 10 µM, respectively.

Regarding `CC(=O)c1c(F)c(F)c(F)c(F)c1S(=O)(=O)N(C)C` [Compound I-26, 2-acetyl-3,4,5,6-tetrafluoro-N,N-dimethylbenzenesulfonamide], the IC50 with MV4-11 cells is 1 to 10 µM; in the assay on MOLM-13 cells it was 1 to 10 µM; in the assay with K562 cells it was more than 10 µM.

Regarding `COC(=O)c1c(F)c(F)c(F)c(F)c1S(=O)(=O)N(C)C` [Compound I-31, methyl 2-(N,N-dimethylsulfamoyl)-3,4,5,6-tetrafluorobenzoate], the IC50 is 0.1 to 1 µM with MV4-11 cells, 1 to 10 µM in the assay on MOLM-13 cells and more than 10 µM in the assay with K562 cells.

Consider `CC(C)COC(=O)c1c(F)c(F)c(F)c(F)c1S(=O)(=O)N(C)C` [Compound I-32, isobutyl 2-(N,N-dimethylsulfamoyl)-3,4,5,6-tetrafluorobenzoate], for which the IC50 was 0.1 to 1 µM in the assay with MV4-11 cells, 1 to 10 µM with MOLM-13 cells and more than 10 µM with K562 cells.

For the molecule `CN(C)C(=O)c1c(F)c(F)c(F)c(F)c1S(=O)(=O)N(C)C` [Compound I-37, 2-(N,N-dimethylsulfamoyl)-3,4,5,6-tetrafluoro-N,N-dimethylbenzamide], the IC50 in the assay on MV4-11 cells is 1 to 10 µM; with MOLM-13 cells, 1 to 10 µM; in the assay on K562 cells, more than 10 µM.

Regarding `CN(C)S(=O)(=O)c1c(F)c(F)c(F)c(F)c1C1CC1` [Compound I-39, 2-cyclopropyl-3,4,5,6-tetrafluoro-N,N-dimethylbenzenesulfonamide], the IC50 in the assay with MV4-11 cells was 1 to 10 µM; with MOLM-13 cells, 1 to 10 µM; with K562 cells, more than 10 µM.

In the case of `CN(C)S(=O)(=O)c1c(F)c(F)c(F)c(F)c1NCc1ccccc1` [Compound I-48, 2-(benzylamino)-3,4,5,6-tetrafluoro-N,N-dimethylbenzenesulfonamide], the IC50 with MV4-11 cells is 1 to 10 µM; in the assay on MOLM-13 cells, 1 to 10 µM; with K562 cells, more than 10 µM.

Turning to `CNc1c(F)c(F)c(F)c(F)c1S(=O)(=O)N(C)C` [Compound I-49, 2,3,4,5-tetrafluoro-N,N-dimethyl-6-(methylamino)benzenesulfonamide], the IC50 in the assay with MV4-11 cells is 1 to 10 µM; with MOLM-13 cells it was 1 to 10 µM; in the assay with K562 cells, more than 10 µM.

Consider `CN(C)S(=O)(=O)c1c(F)c(F)c(F)c(F)c1Nc1cccnc1` [Compound I-52, 2,3,4,5-tetrafluoro-N,N-dimethyl-6-(pyridin-3-ylamino)benzenesulfonamide], for which the IC50 in the assay with MV4-11 cells is 1 to 10 µM; with MOLM-13 cells, more than 10 µM; in the assay on K562 cells, 1 to 10 µM.

With `CN(C)S(=O)(=O)c1c(F)c(F)c(F)c(F)c1NCC(F)F` [Compound I-54, 2-((2,2-difluoroethyl)amino)-3,4,5,6-tetrafluoro-N,N-dimethylbenzenesulfonamide], the values for the IC50 in the assay on MV4-11 cells, in the assay with MOLM-13 cells and in the assay with K562 cells were 1 to 10 µM, 1 to 10 µM and more than 10 µM, respectively.

For the molecule `COc1ccc(NS(=O)(=O)c2c(F)c(F)c(F)c(F)c2OC(C)C)cc1F` [Compound I-61, 2,3,4,5-tetrafluoro-N-(3-fluoro-4-methoxyphenyl)-6-isopropoxybenzenesulfonamide], the IC50 in the assay on MV4-11 cells, in the assay with MOLM-13 cells and in the assay on K562 cells was 0.1 to 1 µM in each case. Besides, the “% Inhibition” value in the assay with tubulin is on record as “A (<10%)”. Also, in the assay with tubulin, the “% D.O.P.” value was “A (>85%)”.

Take `COc1ccc(NS(=O)(=O)c2c(F)c(F)c(F)c(F)c2OCc2ccccc2)cc1F` [Compound I-62, 2-(benzyloxy)-3,4,5,6-tetrafluoro-N-(3-fluoro-4-methoxyphenyl)benzenesulfonamide]: the IC50 with MV4-11 cells, in the assay on MOLM-13 cells and in the assay on K562 cells was more than 10 µM in each case. The “% Inhibition” value in the assay on tubulin is listed as “A (<10%)”.

Consider `COc1ccc(NS(=O)(=O)c2c(F)c(F)c(F)c(F)c2OC)cc1F` [Compound I-64, 2,3,4,5-tetrafluoro-N-(3-fluoro-4-methoxyphenyl)-6-methoxybenzenesulfonamide], for which the IC50 with MV4-11 cells is not above 0.1 µM; in the assay on MOLM-13 cells, 0.1 to 1 µM; with K562 cells it was 0.1 to 1 µM. Besides, the “% Inhibition” value with tubulin is listed as “A (<10%)”. Moreover, the “% D.O.P.” value in the assay with tubulin is on record as “A (>85%)”.

Regarding `COc1ccc(NS(=O)(=O)c2c(F)c(F)c(F)c(F)c2OCC(F)F)cc1F` [Compound I-67, 2-(2,2-difluoroethoxy)-3,4,5,6-tetrafluoro-N-(3-fluoro-4-methoxyphenyl)benzenesulfonamide], the IC50 in the assay with MV4-11 cells, in the assay on MOLM-13 cells and in the assay on K562 cells was 0.1 to 1 µM throughout. For the same molecule, the “% Inhibition” value in the assay with tubulin was “C (>20%)”. Besides, the “% D.O.P.” value in the assay with tubulin is “B (< 85%)”.

With `COc1ccc(NS(=O)(=O)c2c(F)c(F)c(F)c(F)c2OCC(F)(F)F)cc1F` [Compound I-68, 2,3,4,5-tetrafluoro-N-(3-fluoro-4-methoxyphenyl)-6-(2,2,2-trifluoroethoxy)benzenesulfonamide], the IC50 lay within 0.1 to 1 µM in the assay on MV4-11 cells, 1 to 10 µM in the assay with MOLM-13 cells and 0.1 to 1 µM in the assay on K562 cells. Also, the “% Inhibition” value in the assay on tubulin is reported as “B (10-20%)”. Moreover, the “% D.O.P.” value in the assay with tubulin is “B (< 85%)”.

`COc1ccc(NS(=O)(=O)c2c(F)c(F)c(F)c(F)c2OCC2CC2)cc1F` [Compound I-71, 2-(cyclopropylmethoxy)-3,4,5,6-tetrafluoro-N-(3-fluoro-4-methoxyphenyl)benzenesulfonamide]: the results for the IC50 with MV4-11 cells, in the assay on MOLM-13 cells and in the assay on K562 cells were 1 to 10 µM, more than 10 µM and 1 to 10 µM, respectively. In addition, the “% Inhibition” value with tubulin is reported as “A (<10%)”. In addition, the “% D.O.P.” value in the assay with tubulin is on record as “A (>85%)”.

Consider `COc1ccc(NS(=O)(=O)c2c(F)c(F)c(F)c(F)c2OC2COC2)cc1F` [Compound I-72, 2,3,4,5-tetrafluoro-N-(3-fluoro-4-methoxyphenyl)-6-(oxetan-3-yloxy)benzenesulfonamide], for which the IC50 is 0.1 to 1 µM in the assay with MV4-11 cells, more than 10 µM with MOLM-13 cells and more than 10 µM in the assay on K562 cells. Further, the “% Inhibition” value with tubulin is “A (<10%)”. Further, in the assay on tubulin, the “% D.O.P.” value is given as “A (>85%)”.

Regarding `COc1ccc(NS(=O)(=O)c2c(F)c(F)c(F)c(F)c2OCC2COC2)cc1F` [Compound I-73, 2,3,4,5-tetrafluoro-N-(3-fluoro-4-methoxyphenyl)-6-(oxetan-3-ylmethoxy)benzenesulfonamide], the IC50 is 0.1 to 1 µM with MV4-11 cells, 1 to 10 µM in the assay on MOLM-13 cells and 1 to 10 µM in the assay on K562 cells. The “% Inhibition” value in the assay on tubulin is “A (<10%)”. In addition, the “% D.O.P.” value with tubulin is on record as “A (>85%)”.

`COc1ccc(NS(=O)(=O)c2c(F)c(F)c(F)c(F)c2C(=O)O)cc1F` [Compound I-92, 2,3,4,5-tetrafluoro-6-(N-(3-fluoro-4-methoxyphenyl)sulfamoyl)benzoic acid]: the results for the IC50 in the assay on MV4-11 cells, in the assay with MOLM-13 cells and in the assay on K562 cells were 0.1 to 1 µM, 1 to 10 µM and more than 10 µM, respectively.

As usually defined, the IC50 is the midpoint of a concentration-inhibition curve.
